According to paper PMC6691788, “Design and synthesis of phthalazine-based compounds as potent anticancer agents with potential antiangiogenic activity via VEGFR-2 inhibition” (Journal of Enzyme Inhibition and Medicinal Chemistry, 2019):

How the values were obtained:
CCRF-CEM = assay: NCI 60 cell panel SRB screen; type: cell-based, human; conditions: Homo sapiens, single dose 10 μM, read-out: percent cell growth promotion
HL-60(TB) = assay: NCI 60 cell panel SRB screen; type: cell-based; conditions: Homo sapiens, single dose 10 μM, read-out: percent cell growth promotion
RPMI-8226 = assay: NCI 60 cell panel SRB screen; type: cell-based; conditions: Homo sapiens; RPMI-8226, single dose 10 μM; read-out: percent cell growth promotion
SR = assay: NCI 60 cell panel SRB screen; type: cell-based; conditions: Homo sapiens, single dose 10 μM, read-out: percent cell growth promotion
NCI-H226 = assay: NCI 60 cell panel SRB screen; type: cell-based; conditions: Homo sapiens; NCI-H226, single dose 10 μM; read-out: percent cell growth promotion
NCI-H322M = assay: NCI 60 cell panel SRB screen; type: cell-based; conditions: Homo sapiens, single dose 10 μM, read-out: percent cell growth promotion
NCI-H460 = assay: NCI 60 cell panel SRB screen; type: cell-based; conditions: Homo sapiens; NCI-H460, single dose 10 μM; read-out: percent cell growth promotion
HCC-2998 = assay: NCI 60 cell panel SRB screen; type: cell-based; conditions: Homo sapiens; HCC-2998, single dose 10 μM; read-out: percent cell growth promotion
HT29 = assay: NCI 60 cell panel SRB screen; type: cell-based; conditions: Homo sapiens, HT-29; HT29, single dose 10 μM; read-out: percent cell growth promotion
KM12 = assay: NCI 60 cell panel SRB screen; type: cell-based; conditions: Homo sapiens; KM12, single dose 10 μM; read-out: percent cell growth promotion
SNB-19 = assay: NCI 60 cell panel SRB screen; type: cell-based; conditions: Homo sapiens; SNB-19, single dose 10 μM; read-out: percent cell growth promotion
LOX IMVI = assay: NCI 60 cell panel SRB screen; type: cell-based; conditions: Homo sapiens, read-out: percent cell growth promotion
SK-MEL-5 = assay: NCI 60 cell panel SRB screen; type: cell-based; conditions: Homo sapiens, SK-MEL-5, read-out: percent cell growth promotion
OVCAR-3 = assay: NCI 60 cell panel SRB screen; type: cell-based; conditions: Homo sapiens; OVCAR-3, single dose 10 μM; read-out: percent cell growth promotion
OVCAR-8 = assay: NCI 60 cell panel SRB screen; type: cell-based; conditions: Homo sapiens; OVCAR-8, single dose 10 μM; read-out: percent cell growth promotion
RXF 393 = assay: NCI 60 cell panel SRB screen; type: cell-based; conditions: Homo sapiens; RXF 393, single dose 10 μM; read-out: percent cell growth promotion
TK-10 = assay: NCI 60 cell panel SRB screen; type: cell-based, human; conditions: Homo sapiens; TK-10, single dose 10 μM; read-out: percent cell growth promotion
PC-3 = assay: NCI 60 cell panel SRB screen; type: cell-based; conditions: Homo sapiens; PC-3, single dose 10 μM; read-out: percent cell growth promotion
T-47D = assay: NCI 60 cell panel SRB screen; type: cell-based; conditions: Homo sapiens, T47D, read-out: percent cell growth promotion
VEGFR-2 tyrosine kinase = target: T1, VEGFR-2 tyrosine kinase (Homo sapiens, UniProt P35968); assay: In vitro VEGFR-2 tyrosine kinase assay (BPS Bioscience); type: biochemical; conditions: read-out: VEGFR-2 % inhibition; 10 μM concentration
T1 construct: purchased BPS Bioscience 40301
T1 sequence (P35968 20-1356): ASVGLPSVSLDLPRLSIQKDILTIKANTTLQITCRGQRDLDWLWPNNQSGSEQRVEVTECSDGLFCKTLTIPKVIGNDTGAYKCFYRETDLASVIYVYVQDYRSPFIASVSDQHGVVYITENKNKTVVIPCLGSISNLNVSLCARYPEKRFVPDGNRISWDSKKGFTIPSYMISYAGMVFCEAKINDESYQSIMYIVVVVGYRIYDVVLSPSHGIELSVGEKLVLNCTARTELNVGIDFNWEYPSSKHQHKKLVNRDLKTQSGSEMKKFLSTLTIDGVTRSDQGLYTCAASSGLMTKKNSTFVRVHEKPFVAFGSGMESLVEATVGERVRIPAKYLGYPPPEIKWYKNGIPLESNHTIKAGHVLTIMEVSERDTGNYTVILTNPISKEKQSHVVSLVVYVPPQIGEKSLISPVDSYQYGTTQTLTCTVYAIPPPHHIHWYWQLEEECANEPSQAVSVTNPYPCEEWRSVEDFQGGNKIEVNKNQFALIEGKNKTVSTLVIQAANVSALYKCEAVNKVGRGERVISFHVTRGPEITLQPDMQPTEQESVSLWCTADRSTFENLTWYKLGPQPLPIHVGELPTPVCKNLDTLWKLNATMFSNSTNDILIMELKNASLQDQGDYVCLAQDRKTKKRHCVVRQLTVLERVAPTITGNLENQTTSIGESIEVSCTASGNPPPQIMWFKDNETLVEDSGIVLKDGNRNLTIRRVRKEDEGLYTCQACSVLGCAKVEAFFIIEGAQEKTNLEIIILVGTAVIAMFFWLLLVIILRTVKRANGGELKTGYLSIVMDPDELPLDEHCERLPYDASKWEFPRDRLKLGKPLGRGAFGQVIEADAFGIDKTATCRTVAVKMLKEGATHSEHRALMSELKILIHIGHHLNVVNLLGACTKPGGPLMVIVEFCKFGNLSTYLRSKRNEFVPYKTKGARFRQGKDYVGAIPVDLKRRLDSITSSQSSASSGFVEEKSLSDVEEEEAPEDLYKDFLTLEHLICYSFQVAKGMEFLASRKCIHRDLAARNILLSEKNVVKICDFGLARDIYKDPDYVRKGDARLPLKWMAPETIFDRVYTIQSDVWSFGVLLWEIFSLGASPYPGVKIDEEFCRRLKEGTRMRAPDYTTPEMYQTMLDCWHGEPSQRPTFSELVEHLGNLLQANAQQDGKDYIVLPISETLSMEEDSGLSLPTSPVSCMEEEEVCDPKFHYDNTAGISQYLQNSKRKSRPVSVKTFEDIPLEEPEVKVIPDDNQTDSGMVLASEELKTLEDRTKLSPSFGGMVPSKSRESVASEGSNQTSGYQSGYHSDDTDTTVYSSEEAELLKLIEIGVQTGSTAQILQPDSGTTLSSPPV
Description: The VEGFR tyrosine kinase assays were performed at BPS Bioscience (www.bpsbioscience.com). All the synthesised compounds representing the six series were evaluated for their ability to inhibit VEGFR-2 tyrosine kinase at single dose of 10 µM.
The VEGFR tyrosine kinase activity at single dose concentration of 10 μM was carried out by BPS Bioscience (www.bpsbioscience.com). VEGFR (BPS#40301) served as the enzyme source and Poly (Glu, Tyr) sodium salt, (4:1, Glu:Tyr) (Sigma#P7244) served as the standardized substrate & Kinase-Glo Plus Luminescence kinase assay kit (Promega#V3772). The IC50 determination was carried out where quality control testing is routinely performed on each of the targets to insure compliance to acceptable standards. ^33P-ATP was purchased from Perkin Elmer and ADP-Glo^TM was purchased from Promega. All other materials were of standard laboratory grade.
The VEGFR tyrosine kinase activity was performed using Kinase-Glo Plus luminescence kinase assay kit (Promega). It measures kinase activity by quantitating the amount of ATP remaining in solution following a kinase reaction. The luminescent signal from the assay is correlated with the amount of ATP present and is inversely correlated with the amount of kinase activity. The compounds were diluted to 100 μM in 10% DMSO and […] of the dilution was added to a […] reaction so that the final concentration of DMSO is 1% in all of reactions. All of the enzymatic reactions were conducted at 30 °C for 40 min. The 50 μl reaction mixture contains […], pH 7.4, […], 0.1 mg/ml BSA, 0.2 mg/ml Poly (Glu, Tyr) substrate, 10 μM ATP and VEGFR. After the enzymatic reaction, […] of Kinase-GloPlus Luminescence kinase assay solution (Promega) was added to each reaction and incubate the plate for 5 min at room temperature. Luminescence signal was measured using a BioTek Synergy 2 microplate reader. The protein kinase assays used to determine IC50 value were performed using ADP-GloTM assay kit from Promega which measures the generation of ADP by the protein kinase. Generation of ADP by the protein kinase reaction leads to an increase in luminescence signal in the presence of ADP-GloTM assay kit. The assay was started by incubating the reaction mixture in a 96-well plate at 30 °C for 30 min. After the 30 min incubation period, the assay was terminated by the addition of […] of ADP-GloTM Reagent (Promega). The 96 well plate was shaken and then incubated for 40 min at ambient temperature. […] of Kinase detection reagent was added, the 96-well reaction plate was then read using the ADP-Glo Luminescences Protocol on a GloMax plate reader (Promega: Catalog #E7031). Blank control was set up that included all the assay components except the addition of appropriate substrate (replace with equal volume of kinase assay buffer). The corrected activity for each protein kinase target was determined by removing the blank control value.
VEGFR activity assays were performed in duplicate at each concentration. The luminescence data were analyzed using the computer software, Graphpad Prism. The difference between luminescence intensities in the absence of VEGFR (Lut) and in the presence of VEGFR (Luc) was defined as 100% activity (Lut - Luc). […] IC50 determination for inhibitor against VEGFR was estimated by generating a graph of log inhibitor vs normalized response with variable using the Prism software.

**Q.** With `Cc1nnc(Nc2ccc(NC(=O)c3ccc(Cl)cc3)cc2)c2ccccc12` [Compound 5d, 4-Chloro-N-(4–(4-methylphthalazin-1-ylamino)phenyl)benzamide] as the compound, how does the activity at 10 µM (CCRF-CEM) read?
**A.** 91%

**Q.** And the activity at 10 µM (HL-60(TB))?
**A.** 103%

**Q.** What about the activity at 10 µM (RPMI-8226) of the same compound?
**A.** 89.3%

**Q.** What about the activity at 10 µM (SR) of the same compound?
**A.** 86.3%

**Q.** And the activity at 10 µM (NCI-H226)?
**A.** 76.3%

**Q.** What about the activity at 10 µM (NCI-H322M) of the same compound?
**A.** 112%

**Q.** What about the activity at 10 µM (NCI-H460) of the same compound?
**A.** 96.4%

**Q.** What about the activity at 10 µM (HCC-2998) of the same compound?
**A.** 125%

**Q.** And the activity at 10 µM (HT29)?
**A.** 94.3%

**Q.** And the activity at 10 µM (KM12)?
**A.** 101%

**Q.** What about the activity at 10 µM (SNB-19) of the same compound?
**A.** 92%

**Q.** What about the activity at 10 µM (LOX IMVI) of the same compound?
**A.** 91.9%

**Q.** And the activity at 10 µM (SK-MEL-5)?
**A.** 78.7%

**Q.** And the activity at 10 µM (OVCAR-3)?
**A.** 93.3%

**Q.** And the activity at 10 µM (OVCAR-8)?
**A.** 93.1%

**Q.** What about the activity at 10 µM (RXF 393) of the same compound?
**A.** 98.7%

**Q.** And the activity at 10 µM (TK-10)?
**A.** 109%

**Q.** What about the activity at 10 µM (PC-3) of the same compound?
**A.** 72.6%

**Q.** What about the activity at 10 µM (T-47D) of the same compound?
**A.** 79.8%

**Q.** And the inhibition at 10 µM (VEGFR-2 tyrosine kinase)?
**A.** 15%
